Source: ChEMBL document CHEMBL1143211, “Inhibitors of proteases and amide hydrolases that employ an alpha-ketoheterocycle as a key enabling functionality” (Bioorg Med Chem, 2008)

What was measured:
Prothrombin = Prothrombin (Homo sapiens, UniProt P00734); experiment: Inhibition of human alpha-thrombin
Coagulation factor X = Coagulation factor X (Homo sapiens, UniProt P00742); experiment: Inhibition of human factor 10a
Trypsin = Trypsin (Homo sapiens, UniProt P07477+P07478+P35030); experiment: Inhibition of human trypsin; type: protein assay
[1] = biological target: T1, Fatty-acid amide hydrolase 1 (Rattus norvegicus, UniProt P97612)
T1 sequence (P97612 whole entry): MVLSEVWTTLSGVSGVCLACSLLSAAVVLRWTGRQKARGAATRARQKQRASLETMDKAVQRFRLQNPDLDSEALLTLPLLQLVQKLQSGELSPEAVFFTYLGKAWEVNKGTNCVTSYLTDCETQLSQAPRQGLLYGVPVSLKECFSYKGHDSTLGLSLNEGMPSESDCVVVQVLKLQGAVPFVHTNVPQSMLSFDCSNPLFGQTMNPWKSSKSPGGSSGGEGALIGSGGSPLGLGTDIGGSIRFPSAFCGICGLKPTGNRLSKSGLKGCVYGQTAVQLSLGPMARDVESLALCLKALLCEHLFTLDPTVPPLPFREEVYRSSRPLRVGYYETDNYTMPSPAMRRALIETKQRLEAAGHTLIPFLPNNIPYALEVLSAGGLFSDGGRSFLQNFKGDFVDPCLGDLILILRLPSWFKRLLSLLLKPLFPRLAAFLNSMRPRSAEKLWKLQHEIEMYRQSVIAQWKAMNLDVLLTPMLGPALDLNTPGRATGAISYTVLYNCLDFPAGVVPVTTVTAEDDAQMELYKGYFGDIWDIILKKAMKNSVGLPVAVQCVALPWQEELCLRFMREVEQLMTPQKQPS

Coagulation factor X, sequence (P00742 41-179 limits assumed): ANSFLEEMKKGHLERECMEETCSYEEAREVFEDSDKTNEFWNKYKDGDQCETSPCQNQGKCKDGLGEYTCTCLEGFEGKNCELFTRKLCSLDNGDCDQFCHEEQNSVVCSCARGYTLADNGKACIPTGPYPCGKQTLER
Coagulation factor X, sequence (P00742 235-488 limits assumed): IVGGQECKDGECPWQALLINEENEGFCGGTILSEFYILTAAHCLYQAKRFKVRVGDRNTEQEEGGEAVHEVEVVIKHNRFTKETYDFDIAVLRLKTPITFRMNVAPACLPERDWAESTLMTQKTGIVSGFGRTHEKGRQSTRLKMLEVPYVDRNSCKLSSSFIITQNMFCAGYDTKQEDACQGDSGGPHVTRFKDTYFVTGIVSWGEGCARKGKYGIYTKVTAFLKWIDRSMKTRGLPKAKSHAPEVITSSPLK

NC(N)=NCCC[C@H](NC(=O)CN1CCN[C@H](CCCN=C(N)N)C1=O)C(=O)c1nccs1
IC50 (Prothrombin): 200000 nM | IC50 (Coagulation factor X): 21 nM

N=C(N)NCCC[C@@H](NS(=O)(=O)Cc1ccccc1)C(=O)NCC(=O)N[C@@H](CCCCN)C(=O)c1nccs1
IC50 (Coagulation factor X): 1 nM

N=C(N)NCCC[C@H](NC(=O)CN1CCN(S(=O)(=O)Cc2ccccc2)[C@@H](Cc2ccccc2)C1=O)C(=O)c1nccs1
IC50 (Prothrombin): 2000 nM | IC50 (Coagulation factor X): 59 nM

COC(=O)n1nnnc1C(=O)[C@@H](NC(=O)[C@@H]1CC[C@H]2CN(S(=O)(=O)Cc3ccccc3)CC(=O)N21)[C@H]1CC[C@H](N)CC1
Ki (Prothrombin): 2600 nM | Ki (Trypsin): > 400000 nM

C[C@]12C[C@@H](Cc3ccc4nc(C(F)(F)F)ccc4c3)CC(=O)N1[C@H](C(=O)N[C@@H](CCCNC(=N)N)C(=O)c1nc3ccccc3s1)CS2
Ki (Prothrombin): 18 nM

C[C@]12C[C@@H](Cc3ccccc3)CC(=O)N1[C@H](C(=O)N[C@@H](CCCNC(=N)N)C(=O)c1nccs1)CS2
Ki (Prothrombin): 16 nM

CN[C@H](Cc1ccccc1)C(=O)N1CCC[C@H]1C(=O)N[C@](C)(CCCNC(=N)N)C(=O)c1nc2ccccc2s1.O=C(O)C(F)(F)F
IC50 (Prothrombin): 3700 nM | IC50 (Trypsin): 6000 nM

N=C(N)N1CCC[C@@H](C[C@H](NC(=O)CN2C(=O)CN(CCCc3ccccc3)C(=O)[C@H]2Cc2ccccc2)C(=O)c2nccs2)C1
IC50 (Trypsin): 9100 nM

C[C@]12C[C@@H](Cc3ccccc3)CC(=O)N1[C@H](C(=O)N[C@@H](CCCN=C(N)N)C(=O)c1nc3ccccc3s1)CS2
Ki (Prothrombin): 18 nM

N=C(N)N1CCC[C@@H](C[C@H](NC(=O)CN2CC(=O)N(CCCc3ccccc3)CC2=O)C(=O)c2nccs2)C1
Ki (Prothrombin): 500 nM | IC50 (Trypsin): 91000 nM

CCCCCCCC/C=C\CCCCCCCC(=O)c1nc2ccncc2o1
Ki [1]: 3.7 nM

N=C(N)N1CCC[C@@H](C[C@H](NC(=O)CN2C(=O)CN(CCCc3ccc(Cl)cc3)C(=O)[C@H]2Cc2ccccc2)C(=O)c2nccs2)C1
IC50 (Prothrombin): 110 nM

N=C(N)NCCC[C@H](NC(=O)CN1CCN(Cc2ccccc2)CC1=O)C(=O)c1nccs1
IC50 (Prothrombin): 14000 nM | IC50 (Coagulation factor X): 770 nM

CCCCC/C=C\C/C=C\C/C=C\C/C=C\CCCC(=O)c1nc2ncccc2o1
Ki [1]: 1 nM

N=C(N)NCCC[C@@H](NS(=O)(=O)Cc1ccccc1)C(=O)NCC(=O)N[C@@H](Cc1c[nH]c2ccccc12)C(=O)c1nccs1
IC50 (Trypsin): > 180000 nM | IC50 (Coagulation factor X): 39 nM

COc1ccnc(-c2cnc(C(=O)CCCCCCc3ccccc3)o2)c1
Ki [1]: 0.8 nM

CCCCCCCC/C=C\CCCCCCCC(=O)c1cccnn1
Ki [1]: 130 nM

N=C(N)N1CCC([C@H](NC(=O)[C@@H]2CC[C@H]3CN(C(=O)CCc4ccccc4)CC(=O)N32)C(=O)c2nccs2)CC1
IC50 (Trypsin): 11900 nM

CS(=O)(=O)N[C@H](CCCNC(=N)N)C(=O)NCC(=O)N[C@@H](CCCNC(=N)N)C(=O)c1nccs1
IC50 (Coagulation factor X): 2 nM

NC(N)=NCCC[C@H](NC(=O)CN1CCN(S(=O)(=O)Cc2ccccc2)CC1=O)C(=O)c1nccs1
IC50 (Prothrombin): 390 nM | IC50 (Coagulation factor X): 4 nM

CCCCCCCC/C=C\CCCCCCCC(=O)c1ncco1
Ki [1]: 17 nM

CCCCC(=O)c1nc2ncccc2o1
Ki [1]: 50 nM

N=C(N)NCCC[C@H](NC(=O)CNC(=O)[C@@H](CC1CCCCC1)NS(=O)(=O)Cc1ccccc1)C(=O)c1nccs1
IC50 (Prothrombin): 40 nM | IC50 (Coagulation factor X): 0.6 nM

Cn1nnnc1C(=O)[C@@H](NC(=O)[C@@H]1CC[C@H]2CN(S(=O)(=O)Cc3ccccc3)CC(=O)N21)[C@H]1CC[C@H](N)CC1
Ki (Prothrombin): 5 nM | Ki (Trypsin): 35000 nM

N=C(N)NCCC[C@H](NC(=O)[C@@H]1CCCN1C(=O)CC(c1ccccc1)c1ccccc1)C(=O)c1nc2ccccc2s1
Ki (Prothrombin): 1.1 nM

N=C(N)NCCC[C@H](NC(=O)CN1CCN[C@@H](CCCNC(=N)N)C1=O)C(=O)c1nccs1
IC50 (Prothrombin): 150000 nM | IC50 (Coagulation factor X): 11 nM

CCCCCCCC/C=C\CCCCCCCC(=O)c1nc2ccccc2s1
Ki [1]: > 100000 nM

CCCCCCCC(=O)c1nc2ncccc2o1
Ki [1]: 0.69 nM

NC(N)=NCCC[C@H](NC(=O)CN1CCN(S(=O)(=O)c2ccc(Cl)cc2)CC1=O)C(=O)c1nccs1
IC50 (Prothrombin): 1000 nM

C[C@@H]1C(=O)N(CCCc2ccccc2)CC(=O)N1CC(=O)N[C@@H](C[C@@H]1CCCN(C(=N)N)C1)C(=O)c1nccs1
IC50 (Trypsin): 340 nM

N[C@H]1CC[C@H]([C@H](NC(=O)[C@@H]2CC[C@H]3CN(S(=O)(=O)Cc4ccccc4)CC(=O)N32)C(=O)c2nc3ccccc3s2)CC1
Ki (Prothrombin): 0.7 nM | Ki (Trypsin): 1400 nM

N=C(N)NCCC[C@H](NC(=O)CN1CCN(C(=O)c2ccccc2)CC1=O)C(=O)c1nccs1
IC50 (Prothrombin): 7000 nM | IC50 (Coagulation factor X): 320 nM

CCCCCCCC/C=C\CCCCCCCC(=O)c1nnnn1C
Ki [1]: 3700 nM

N=C(N)NCCC[C@@H](N)C(=O)NCC(=O)N[C@@H](CCCNC(=N)N)C(=O)c1nccs1
IC50 (Coagulation factor X): 8 nM

COC(=O)c1cccnc1-c1cnc(C(=O)CCCCCCc2ccccc2)o1
Ki [1]: 130 nM

N=C(N)NCCC[C@H](NC(=O)CN1CCN(S(=O)(=O)Cc2ccccc2)[C@H](Cc2ccccc2)C1=O)C(=O)c1nccs1
IC50 (Prothrombin): 510 nM | IC50 (Coagulation factor X): 0.9 nM

NC(N)=NCCC[C@H](NC(=O)[C@@H]1CC[C@H]2CN(C(=O)[C@H](N)Cc3cc4ccccc4[nH]3)CC(=O)N21)C(=O)c1nccs1
Ki (Prothrombin): 1 nM

CCCCCCCC/C=C\CCCCCCCC(=O)c1nnn(C)n1
Ki [1]: 65 nM

N=C(N)N1CCC[C@@H](C[C@H](NC(=O)[C@@H]2CC[C@H]3CN(C(=O)CCc4ccccc4)CC(=O)N32)C(=O)c2nc3ccccc3s2)C1
IC50 (Prothrombin): < 1 nM | IC50 (Trypsin): 590 nM

N=C(N)NCCC[C@@H](NS(=O)(=O)Cc1ccccc1)C(=O)NCC(=O)N[C@@H](CC1CCNCC1)C(=O)c1nccs1
IC50 (Coagulation factor X): 28 nM

NC(N)=NCCC[C@H](NC(=O)CN1CCN(S(=O)(=O)c2ccccc2)CC1=O)C(=O)c1nccs1
IC50 (Prothrombin): 420 nM | IC50 (Coagulation factor X): 8 nM

CC(C)C[C@H](NC(=O)NCc1ccc(Cl)c(Cl)c1)C(=O)N[C@H](C(=O)N[C@@H](CCCN=C(N)N)C(=O)c1nccs1)C(C)C
IC50 (Prothrombin): 2600 nM

NC(N)=NCCC[C@H](NC(=O)CN1CCN(C(=O)Cc2ccccc2)CC1=O)C(=O)c1nccs1
IC50 (Prothrombin): 11000 nM | IC50 (Coagulation factor X): 17 nM

N=C(N)NCCC[C@H](NC(=O)Cn1c(Cc2ccccc2)c(Cl)nc(NCCc2ccccc2)c1=O)C(=O)c1nccs1
IC50 (Trypsin): 470 nM

O=C(CCc1ccc(-c2ccccc2)cc1)c1nc(-c2ccccn2)co1
Ki [1]: 0.75 nM

CCCCC/C=C\C/C=C\C/C=C\C/C=C\CCCC(=O)[n+]1ccccn1
Ki [1]: 47 nM

CN(CC(=O)N[C@@H](CCCNC(=N)N)C(=O)c1nccs1)C(=O)CNS(=O)(=O)c1ccccc1
IC50 (Coagulation factor X): 6 nM

Cc1nc(C(=O)[C@@H](NC(=O)[C@@H]2CC[C@H]3CN(S(=O)(=O)Cc4ccccc4)CC(=O)N32)[C@H]2CC[C@H](N)CC2)sc1C(=O)O
Ki (Prothrombin): 80 nM | Ki (Trypsin): 65000 nM

N=C(N)NCCC[C@H](NC(=O)CNC(=O)[C@@H](Cc1ccccc1)NS(=O)(=O)Cc1ccccc1)C(=O)c1nccs1
IC50 (Coagulation factor X): 2 nM

C[C@]12C[C@@H](Cc3ccc4nc(C(F)(F)F)ccc4c3)CC(=O)N1[C@H](C(=O)N[C@@H](CCCN=C(N)N)C(=O)c1nccs1)CS2
Ki (Prothrombin): 10 nM

N=C(N)N1CCC[C@@H](C[C@H](NC(=O)CN2C(=O)CN(c3ccccc3)C(=O)[C@H]2Cc2ccccc2)C(=O)c2nccs2)C1
IC50 (Prothrombin): 1200 nM

N=C(N)NCCC[C@H](NC(=O)CNC(=O)[C@@H](Cc1c[nH]c2ccccc12)NS(=O)(=O)Cc1ccccc1)C(=O)c1nccs1
IC50 (Coagulation factor X): 2 nM

N=C(N)NCCC[C@H](NC(=O)[C@@H]1CC[C@H]2CN(C(=O)CCOc3ccccc3)CC(=O)N21)C(=O)c1nccs1
Ki (Prothrombin): 5 nM

CCCCCCCC/C=C\CCCCCCCC(=O)c1nccs1
Ki [1]: > 100000 nM

CCCCCCCCCC/C=C\CCCCCCC(=O)c1ncc(-c2cccnn2)o1
Ki [1]: 14 nM

N[C@H]1CC[C@H]([C@H](NC(=O)[C@@H]2CC[C@H]3CN(S(=O)(=O)Cc4ccccc4)CC(=O)N32)C(=O)c2nccs2)CC1
Ki (Prothrombin): 3.2 nM | Ki (Trypsin): 8000 nM

N=C(N)NCCC[C@H](NC(=O)[C@@H]1CCCN1C(=O)[C@H](CO)NS(=O)(=O)c1cccc2ccccc12)C(=O)c1nc2ccccc2s1
Ki (Prothrombin): 0.8 nM

Cc1cccc(C(C)(C)CN(CC(=O)NCC(=O)NC(CCCN=C(N)N)B(O)O)C(=O)CCc2ccccc2)c1 (single isomer, unassigned)
Ki (Prothrombin): 400 nM

NC(N)=NCCC[C@H](NC(=O)CN1CCCC[C@@H](NS(=O)(=O)Cc2ccccc2)C1=O)C(=O)c1nccs1
IC50 (Prothrombin): 38 nM

N=C(N)NCCC[C@@H](NS(=O)(=O)Cc1ccccc1)C(=O)NCC(=O)N[C@@H](Cc1ccncc1)C(=O)c1nccs1
IC50 (Coagulation factor X): 44 nM

C[C@H]1C(=O)N(CCCc2ccccc2)CC(=O)N1CC(=O)N[C@@H](C[C@@H]1CCCN(C(=N)N)C1)C(=O)c1nccs1
IC50 (Trypsin): 24000 nM

CCCCCCCC/C=C\CCCCCCCC(=O)c1nnco1
Ki [1]: 90 nM

N=C(N)NCCC[C@H](NC(=O)[C@@H]1CC[C@H]2CN(C(=O)CCc3ccccc3)CC(=O)N21)C(=O)c1nc2ccccc2s1
IC50 (Prothrombin): < 1 nM

N=C(N)NCCC[C@H](NC(=O)[C@@H]1CC[C@H]2CN(S(=O)(=O)Cc3ccccc3)CC(=O)N21)C(=O)c1nccs1
Ki (Prothrombin): 0.2 nM

CC(C)(C)CC(=O)N[C@H](Cc1ccccc1)C(=O)N1CCC[C@H]1C(=O)N[C@@H](CCCNC(=N)N)C(=O)c1nc2ccccc2o1.O=C(O)C(F)(F)F
IC50 (Trypsin): 2.3 nM | IC50 (Coagulation factor X): 110 nM
